US8329681B2, “Methods and compositions for the efficient delivery of therapeutic agents to cells and animals” (University of Massachusetts, priority 2005, dated 2012)

Experiments:
[1] = system: FL83B cells; experiment: Cell Titer 96 AQueous One Solution (MTS) cytotoxicity assay; format: cell-based, rat; details: liposomal formulation alone or in combination with DOPE and DOPC as co-lipid
Experimental: (§1) Alternatively, the cytotoxicity of the lipids was measured using the Cell Titer 96® AQueous One Solution Cell Proliferation Assay. The Cell Titer 96® AQueous One Solution Reagent contains a tetrazolium compound [3-(4,5-dimethylthiazol-2-yl)-5-(3-carboxymethoxyphenyl)-2(4-sulfophenyl)-2H-tetrazolium, inner salt; MTS^17] and an electron coupling reagent (phenazine ethosulfate; PES). The cytotoxicity assay was performed in 96 well plates by maintaining the ratio of number of cells to amount of cationic lipid constant as in transfection experiments. MTS was added 24 hours after transfection. Cell Titer 96® AQueous One Solution Reagent (20 ul) was pipetted into each well of the 96-well assay plate containing the samples in 100 μl of culture medium. In case of HeLa cells the plates were incubated for 2 hours, whereas for FL83B cells, plates were incubated for 4 hours at 37° C. in a humidified, 5% CO2 atmosphere. Absorbance was then recorded at 490 nm.
(§2) In a second experiment, FL83B and HeLa cells were plated on 96 well plate 18 hours prior to transfection. Then, liposome was added to each well and incubated for 24 hours. Thereafter, Cell Titer 96® AQueous One Solution Reagent was added and incubated for 4 hours. The MTS tetrazolium compound (Owen's reagent) is bioreduced by viable cells into a colored formazan product that is soluble in tissue culture […]. The absorbance of the formazan was measured at 490 nm with a 96 well plate reader.

[2] = system: HeLa cells; experiment: Transfection of pSV-β-gal plasmid, β-galactosidase reporter activity; format: cell-based, human
Experimental: (§3) Cationic lipids and the co-lipids in chloroform were dried under a stream of N2 gas and vacuum-desiccated for a minimum of 6 h to remove residual organic solvent. The dried lipid film was hydrated in sterile deionized water at cationic lipid concentration of 1 mM for a minimum of 12 h. Liposomes were vortexed to remove any adhering lipid film and probe sonicated until a clear translucent solution is formed. The pDNA solution was added to the liposomes, mixed properly by pipeting and shaken on a rotary shaker (15-30 mins.) before use.
(§4) Cells were seeded at a density of 20,000 (for HeLa cells), 16,000 (for A-549 cells), 8,000 (for FL83B cells) per well in a 96-well plate 18-24 h before transfection. An amount of 0.30 μg of pDNA was complexed with varying amounts of lipids (to give +/− ratios of 0.3:1, 1:1, 3:1 and 9:1) in plain OPTIMEM (total volume made up to 100 μl) and then shaken on a rotary shaker at room temperature for 20-30 minutes. The complexes were then added to the cells. After 5 h of incubation, 200 μl of complete medium containing 10% FBS in DMEM for HeLa and 10% FBS in F-12K for FL83B and A549 was added to the cells. The medium was changed after 24 h and the reporter gene activity was estimated 48 h after transfection. Cells were washed with PBS (100 μl) and lysed in […] lysis buffer (5× reporter lysis buffer diluted to 1×, working concentration). The β-galactosidase activity per well was estimated by adding 50 μl of 2× substrate solution (1.33 mg/ml of ONPG, 0.2 M sodium phosphate, pH 7.15 and 2 mM magnesium chloride) to the lysate in a 96-well plate. Absorbance of the product ortho-nitrophenol was measured at 420 nm. The absorbance values reported are the average values from two replicate experiments performed in the same plate on the same day. Each transfection experiment was performed three times on three different days to control for variations in transfection efficiency.
(§5) Briefly, the efficacy of various lipid formulations were tested in three cell lines A-549, FL83B and HeLa cells and the transfection efficiencies of the cationic liposomal formulations were compared with a commercially available transfection reagent (e.g., Lipofectamine 2000).

[3] = system: A549 cells; experiment: as above; format: cell-based, human
Experimental: as §3, §4, §5

[4] = system: HeLa cells; experiment: Cell Titer 96 AQueous One Solution (MTS) cytotoxicity assay; format: cell-based, human; details: liposomal formulation alone or in combination with DOPE and DOPC as co-lipid
Experimental: as §1, §2

[5] = system: FL83B cells; experiment: Transfection of pSV-β-gal plasmid, β-galactosidase reporter activity; format: cell-based, rat
Experimental: as §3, §4, §5

[6] = system: CDK9 expression; experiment: In vivo delivery of CDK9 siRNA with liposome by tail vein injection, CDK9 expression in spleen; set-up: species or system BALB/c mice; details: Cy3-labeled CDk9 siRNA (25 μg) and liposome (125 μg), repeated 4 and 8 h later, within the initial 24 h after treatment
Experimental: Total RNA was extracted from tissues or cultured cells using Trizol (Invitrogen, Carlsbad, Calif.), and real-time RT-PCR for CDK9 and GAPDH mRNA quantification was carried out using 200 ng of total RNA and the QuantiTect SYBR Green RT-PCR Kit (Qiagen, Valencia, Calif.) according to the manufacturer's instructions. The ratio of CDK9 and GAPDH mRNA was calculated and expressed as a group average relative to the control group. The specific probe for detection of CDK9 mRNA levels was designed to the following regions of the CDK9 mRNA ORF, the forward primer 5′ TCGGACCAA AGCCTCACCGTATAA 3′, the reverse primer 5′ […] TTG 3′
Male BALB/c mice, 6-8 weeks of age and weighting 20-22 g, were purchased form the Jackson Laboratory (Bar Harbor, Me.). Synthetic siRNA were delivered in vivo using following method. For each mice 25 μg of siRNA in 100 μl of HEPES Buffered Saline (20 mM HEPES, 150 mM NaCl, pH 7.4) was transferred into a sterile tube. In a separate sterile tube 125 μg of liposome was mixed with 200 μl HEPES Buffered Saline. The siRNA solution was transferred to the tube containing liposome solution and then incubated at room temperature for 20 minutes. 200 μl of the complexes was injected via the tail vein, using a 1-ml syringe and 27-gauge needle. The injection was repeated 4 and 8 h later. Control mice were injected with an equal volume of liposome. At 24 h after the last injection, the mice were sacrificed and tissues were harvested for further analysis. CDK9 expression level was normalized with GAPDH and then compared to those obtained from control animals and shown as percent expression. The data represent the mean value +/− SD of three to five mice in each group.
Briefly, the ability of the new synthesized liposome to deliver siRNA in mice was investigated. BALB/c mice were administrated with complexes of Cy3-labeled CDk9 siRNA (25 μg) and liposome (125 μg) via normal pressure tail vein injection. The injection was repeated 4 and 8 h later. Control mice were administrated with an equal amount of liposome. […]

[7] = system: FL83B cells; experiment: Cell Titer-Blue cell viability assay, cytotoxicity of liposomes; format: cell-based, rat; details: 50 μg/ml, 24 h incubation
Experimental: The Cell Titer-Blue Cell Viability Assay Kit (Promega, Madison, Wis.) was applied to detect and measure cytotoxicity in FL83B cells according to the manufacturer's instructions. Briefly, […] cells were plated on 96-well plate in F-12K medium (ATCC, Manassas, Va.) with 10% fetal bovine serum at 37° C. in 5% CO2. At 24 h., liposomes were added to each well at various concentrations and incubated for 24 h at 37° C. in 5% CO2. Afterwards, the Cell Titer-Blue Reagent was added to each well at 20 μl/well and incubated for 4 h at 37° C. in 5% CO2. The fluorescent signal was recorded by a fluorescent reader (560/590 nm).
Briefly, in a first experiment, the ability of eukaryotic cells to survive exposure to various lipids at doses of 20 and 50 μg/ml was examined. Fl83B cells were plated on 96-well plate for 24 hours. Typically liposomes were added to well and incubated at 37° C. for 24 hours. Thereafter, Cell Titer-Blue Reagent (resazurin) was added and incubated for 4 hours. Resazurin was used as indicator to measure the metabolic capacity of cells. Viable cells retain the ability to reduce resazurin into resorufin, which is highly fluorescent. […] The fluorescence in each well was measured by fluorescent reader.
All cytotoxicity measurements were performed after 24 h of incubation with new synthesizes liposome without medium changes. […]

[8] = system: A-549, FL83B and HeLa cells; experiment: Transfection of pSV-β-gal plasmid, overall statement without cell line; format: cell-based; details: alone without any co-lipids
Experimental: as §4, with “efficiency. […]” for “efficiency.”

[9] = alone or in combination with DOPE and DOPC, lipid:DNA charge ratio 9.0:1 to 0.3:1.0
[10] = lipid:DNA charge ratio 9.0:1 to 0.3:1.0
[11] = in combination with DOPE and DOPC
[12] = alone and in combination with DOPE and DOPC, lipid:DNA charge ratio 9.0:1 to 0.3:1

SMILES: CC(C)CCC[C@@H](C)[C@H]1CC[C@H]2[C@@H]3CC=C4C[C@@H](OC(=O)NCC[N+](C)(C)CCCCCCCCCCCO)CC[C@]4(C)[C@H]3CC[C@]12C.[Br-] [Lipid 16]
- cytotoxicity as compared to a control [1]: non-toxic
- transfection efficiency, fold less active than Lipofectamine 2000 [2, 9]: about 1.5 fold
- transfection efficiency of lipid alone compared with combination with co-lipids DOPE and DOPC [2, 10]: almost the same
- transfection efficiency compared with Lipofectamine 2000 [3, 9]: about a little more than one fold
- transfection efficiency of lipid alone compared with combination with co-lipids DOPE and DOPC [3, 10]: almost the same
- cytotoxicity as compared to a control [4]: non-toxic
- transfection efficiency compared with Lipofectamine 2000 ([5]; alone or in combination with co-lipids): about two fold less

SMILES: CCCCCCCCCCCCCC(=O)O[C@H](COC(=O)CCC(=O)O[C@H]1CC[C@@]2(C)C(=CC[C@H]3[C@@H]4CC[C@H]([C@H](C)CCCC(C)C)[C@@]4(C)CC[C@@H]32)C1)C[N+](C)(CCO)CCO.[I-] [Lipid 9]
- CDK9 expression level in the spleen decreased by [6]: 30%
- transfection efficiency, fold less than Lipofectamine 2000 [2, 11]: more than 1 fold
- transfection efficiency compared with Lipofectamine 2000 [3, 11]: comparable
- cell death [7]: 12%
- transfection efficiency, fold less than Lipofectamine 2000 [5, 11]: more than 1 fold

SMILES: CC[N+](C)(C)CCNC(=O)OC1CC[C@@]2(C)C(=CC[C@H]3[C@@H]4CC[C@H]([C@H](C)CCCC(C)C)[C@@]4(C)CC[C@@H]32)C1 (some centres unmarked) [Lipid 14]
- transfection efficiency compared with Lipofectamine 2000 ([2]; in combination with DOPC, lipid:DNA charge ratio 0.3:1): almost comparable
- transfection efficiency, fold less than Lipofectamine 2000 ([2]; in combination with DOPE): 2.5 fold
- transfection efficiency, fold less than Lipofectamine 2000 ([2]; lipid alone, charge ratio 9:1 to 3:1): more than 1.5 fold
- transfection efficiency, fold less than Lipofectamine 2000 ([3]; alone or in combination with DOPE and DOPC, lipid:DNA charge ratios 1:1 and 0.3:1): about 1.5 fold
- transfection efficiency compared with Lipofectamine 2000 ([5]; alone, charge ratio 3:1): comparable
- transfection efficiency compared with Lipofectamine 2000 ([5]; in combination with DOPC): less efficient
- transfection efficiency compared with Lipofectamine 2000 ([5]; in combination with DOPE, charge ratio 9:1): comparable

SMILES: CC(C)CCC[C@@H](C)[C@H]1CC[C@H]2[C@@H]3CC=C4CC(OC(=O)CCC(=O)OCC(O)C[N+](C)(C)C)CC[C@]4(C)[C@H]3CC[C@]12C (some centres unmarked) [Lipid 12, N,N,N-Trimethyl-N-[2-hydroxy, 3-succinyloxy(4-cholesteryloxy)-propyl]ammonium iodide]
- transfection efficiency compared with Lipofectamine 2000 ([2]; lipid:DNA charge ratio 0.3:1): comparable
- transfection efficiency compared with Lipofectamine 2000 ([3]; lipid:DNA charge ratio 0.3:1): comparable
- transfection efficiency compared with Lipofectamine 2000 ([5]; lipid:DNA charge ratio 0.3:1): comparable

SMILES: CCCCCCCCCCCCCC(=O)OC(COC(=O)CCC(=O)O[C@H]1CC[C@@]2(C)C(=CC[C@H]3[C@@H]4CC[C@H]([C@H](C)CCCC(C)C)[C@@]4(C)CC[C@@H]32)C1)C[N+](C)(C)C.[I-] (some centres unmarked) [Lipid 7, N,N,N-Trimethyl-N-[2-(tetradecanoyloxy),3-succinyloxy(4-cholesteryloxy)-propyl]ammonium iodide]
- cytotoxicity as compared to a control [1]: non-toxic
- CDK9 expression level in the spleen decreased by [6]: 40%
- transfection efficiency compared with Lipofectamine 2000 [2, 12]: more than one fold less
- transfection efficiency compared with Lipofectamine 2000 [3, 12]: comparable
- transfection efficiency of lipid alone compared with lipid in combination with DOPE and DOPC [8]: about as efficient
- cytotoxicity as compared to a control [4]: non-toxic
- transfection efficiency compared with Lipofectamine 2000 [5, 12]: comparable
